This is an account of results in patent US9187458B2, “Cyanoquinoline derivatives” (Tianjin Hemay Bio-Tech Co., LTD., priority 2010, dated 2015).

SMILES strings stand for the structures.

The subject of the first assay is BT-474 cells. Description: BT-474 Cell Growth Inhibition Test (SRB Assay). The class given is cell-based, human. The note with it: Homo sapiens, 70 h incubation. How it is done:
BT-474 Cell Growth Inhibition Test (SRB Assay)
1. Cell strains: BT-474 (human breast tumor cell strains);
2. SRB: available from Sigmaaldrich, goods number: S9012, lot number: 047K3751. SRB was reserved at the room temperature. 0.4% (w/v) of working solution was formulated with 1% of glacial acetic acid. The solution was reserved at the temperature of 4° C.; anti-tumor compounds; DMSO.
Culture medium (90% EMEM+10% FBS+0.1 mM NEAA, reserved at 4° C.);
1. A plate (10 cm) of cells in logarithmic growth phase normally cultured was collected. The culture solution was sucked out. The plate was washed with 5 mL of PBS 1-2 times;
2. PBS was sucked out, and […] of 0.25% pancreatin was added to infiltrate the cells for 30 s;
3. The pancreatin was sucked out. The culture plate was pleaced in an incubator. Digestion was carried out for about 5 min at 37° C.;
4. 3 mL of complete culture solution was added to the culture plate to stop the digestion. The cells were carefully scoured with micropipette (1 ml) to give a uniform single cell suspension;
5. Cell suspension was counted. The suspension was diluted to 1×10^5/ml. The resulting suspension was developed uniformly on a plate. The plate was incubated under 5% CO2 at 37° C. overnight. In day 2, 80 μL of complete culture medium was added in each well and then 20 μL of culture solution comprising a compound was added. The mixture was incubated for 70 h under 5% CO2 at 37° C.
6. The culture solution was sucked out. 100 uL of TCA fixed cells which were diluted to 10% were added to each well. The plate was kept in a refrigerator for 1 h at 4° C.
7. TCA stationary liquid was sucked out. Each well was washed with 150 μL of ddH2O five times;
8. After the stationary liquid was cleansed, the plate was dried in the air at the room temperature;
9. 60 μL of SRB staining solution was added in each well. The well was stained for 15 min at the room temperature;
10. The SRB staining solution was sucked out. Each well was washed with 150 μL of 1% glacial acetic acid five times;
11. After the SRB staining solution was cleansed, the plate was dried in the air at the room temperature;
12. 100 μL of 10 mM Tris was added in each well. The plate was vibrated to dissolve out SRB;
13. OD values were determined at 570 nM.
(§1) 1. Calculation of Relative Inhibition Ratio The inhibition ratio of a compound on cell growth=(PC−n)/(PC−NC)×100%
IC50: Concentration of a compound where inhibition ratio was 50%. IC50 values were fitted with Origin7.5.
In turn, `C#Cc1cccc(Nc2c(C#N)cnc3cc(O[C@H]4CCOC4)c(NC(=O)/C=C/CN(CCOC)CCOC)cc23)c1` [Example 191, (S,E)-N-(3-CYANO-4-(3-ETHYNYLPHENYLAMINO)-7-(TETRAHYDROFURAN-3-YL-OXY)QUINOLIN-6-YL)-4-(DIMETHOXYETHYLAMINO)-BUT-2-ENAMIDE] came in with an IC50 of 390 nM.

Staying with this assay, now noted: Homo sapiens, BT-474, 70 h, compound 1 μM, 70 h incubation, read-out: Growth Inhibition Ratio (%).
Take `C#Cc1cccc(Nc2c(C#N)cnc3cc(O[C@H]4CCOC4)c(NC(=O)/C=C/CNCc4ccccc4)cc23)c1` [Example 147, (S,E)-N-(3-CYANO-4-(3-ETHYNYLPHENYLAMINO)-7-(TETRAHYDROFURAN-3-YL-OXY)QUINOLIN-6-YL)-4-(BENZYLAMINO)-BUT-2-ENAMIDE]: the inhibition at 1 µM amounted to 75%.

For `CN(C)C/C=C/C(=O)Nc1cc2c(Nc3cccc(Br)c3)c(C#N)cnc2cc1O[C@H]1CCOC1` [Example 156, (S,E)-N-(4-(3-BROMOPHENYLAMINO)-3-CYANO-7-(TETRAHYDROFURAN-3-YL-OXY)QUINOLIN-6-YL)-4-(DIMETHYLAMINO)-BUT-2-ENAMIDE], the inhibition at 1 µM came out at 70%. Take `CN(C)C/C=C/C(=O)Nc1cc2c(Nc3ccc(OCc4ccccc4C#N)c(Cl)c3)c(C#N)cnc2cc1O[C@H]1CCOC1` [Example 162, (S,E)-N-(4-(4-(2-CYANOBENZYLOXY)-3-CHLOROPHENYLAMINO)-3-CYANO-7-(TETRAHYDROFURAN-3-YL-OXY)QUINOLIN-6-YL)-4-(DIMETHYLAMINO)-BUT-2-ENAMIDE]: the inhibition at 1 µM turned out to be 80%.

For the compound `CCN(CC)C/C=C/C(=O)Nc1cc2c(Nc3ccc(F)c(Cl)c3)c(C#N)cnc2cc1O[C@H]1CCOC1` [Example 168, (S,E)-N-(4-(3-CHLORO-4-FLUOROPHENYLAMINO)-3-CYANO-7-(TETRAHYDROFURAN-3-YL-OXY)QUINOLIN-6-YL)-4-(DIETHYLAMINO)-BUT-2-ENAMIDE], the inhibition at 1 µM worked out at 86%. Take `N#Cc1cnc2cc(O[C@H]3CCOC3)c(NC(=O)/C=C/CN3CCCCC3)cc2c1Nc1ccc(F)c(Cl)c1` [Example 169, (S,E)-N-(4-(3-CHLORO-4-FLUOROPHENYLAMINO)-3-CYANO-7-(TETRAHYDROFURAN-3-YL-OXY)QUINOLIN-6-YL)-4-(PIPERIDIN-1-YL)-BUT-2-ENAMIDE]: the inhibition at 1 µM is 80%. The same measure, in the same setting: in the case of `CCN(CC)C/C=C/C(=O)Nc1cc2c(Nc3ccc(OCc4cccc(F)c4)c(Cl)c3)c(C#N)cnc2cc1O[C@H]1CCOC1` [Example 171, (S,E)-N-(4-(4-(3-FLUOROBENZYLOXY)-3-CHLOROPHENYLAMINO)-3-CYANO-7-(TETRAHYDROFURAN-3-YL-OXY)QUINOLIN-6-YL)-4-(DIETHYLAMINO)-BUT-2-ENAMIDE] it was 84%; in that of `N#Cc1cnc2cc(O[C@H]3CCOC3)c(NC(=O)/C=C/CN3CCCCC3)cc2c1Nc1ccc(OCc2cccc(F)c2)c(Cl)c1` [Example 172, (S,E)-N-(4-(4-(3-FLUOROBENZYLOXY)-3-CHLOROPHENYLAMINO)-3-CYANO-7-(TETRAHYDROFURAN-3-YL-OXY)QUINOLIN-6-YL)-4-(PIPERIDIN-1-YL)-BUT-2-ENAMIDE], 62%; in that of `N#Cc1cnc2cc(O[C@H]3CCOC3)c(NC(=O)/C=C/CN3CCOCC3)cc2c1Nc1ccc(OCc2cccc(F)c2)c(Cl)c1` [Example 173, (S,E)-N-(4-(4-(3-FLUOROBENZYLOXY)-3-CHLOROPHENYLAMINO)-3-CYANO-7-(TETRAHYDROFURAN-3-YL-OXY)QUINOLIN-6-YL)-4-(MORPHOLIN-4-YL)-BUT-2-ENAMIDE], 67%. The same measure, in the same setting: in the case of `N#Cc1cnc2cc(O[C@H]3CCOC3)c(NC(=O)/C=C/CN(CCO)CCO)cc2c1Nc1ccc(F)c(Cl)c1` [Example 192, (S,E)-N-(3-CYANO-4-(3-CHLORO-4-FLUORO-PHENYLAMINO)-7-(TETRAHYDROFURAN-3-YL-OXY)QUINOLIN-6-YL)-4-(DIETHANOLAMINO)-BUT-2-ENAMIDE] it was 85%; in that of `CN(C/C=C/C(=O)Nc1cc2c(Nc3ccc(OCc4cccc(F)c4)c(Cl)c3)c(C#N)cnc2cc1O[C@H]1CCOC1)CCO` [Example 198, (S,E)-N-(3-CYANO-4-(4-(3-FLUOROBENZYLOXY)-3-CHLOROPHENYLAMINO)-7-(TETRAHYDROFURAN-3-YL-OXY)QUINOLIN-6-YL)-4-(N-METHYLETHANOLAMINO)-BUT-2-ENAMIDE], 78%; in that of `COCCN(C)C/C=C/C(=O)Nc1cc2c(Nc3ccc(OCc4ccccn4)c(Cl)c3)c(C#N)cnc2cc1O[C@H]1CCOC1` [Example 201, (S,E)-N-(3-CYANO-4-(3-CHLORO-4-(PYRIDIN-2-YL-METHOXY)PHENYLAMINO)-7-(TETRAHYDROFURAN-3-YL-OXY)QUINOLIN-6-YL)-4-(N-METHYLMETHOXY ETHYLAMINO)-BUT-2-ENAMIDE], 80%. For `COCCN(C/C=C/C(=O)Nc1cc2c(Nc3ccc(OCc4ccccn4)c(Cl)c3)c(C#N)cnc2cc1O[C@H]1CCOC1)CCOC` [Example 203], the inhibition at 1 µM worked out at 82%. On the same count and under the same terms, in the case of `N#Cc1cnc2cc(O[C@H]3CCOC3)c(NC(=O)/C=C/CNCCCCCCO)cc2c1Nc1ccc(F)c(Cl)c1` [Example 205, (S,E)-N-(3-CYANO-4-(3-CHLORO-4-FLUORO-PHENYLAMINO)-7-(TETRAHYDROFURAN-3-YL-OXY)QUINOLIN-6-YL)-4-(6-HYDROXYHEXYLAMINO)-BUT-2-ENAMIDE] it was 75%.

The assay is the same for the next values; noted with them: compound 1 μM, 70 h incubation.
`CCN(CC)C/C=C/C(=O)Nc1cc2c(Nc3ccc(OCc4ccccn4)c(Cl)c3)c(C#N)cnc2cc1O[C@H]1CCOC1` [Example 184, (S,E/Z)-N-(4-(3-CHLORO-4-(PYRIDIN-2-YL-METHOXY)PHENYLAMINO)-3-CYANO-7-(TETRAHYDROFURAN-3-YL-OXY)QUINOLIN-6-YL)-4-(DIETHYLAMINO)-BUT-2-ENAMIDE]: the “Growth Inhibition Ratio (%)” value turned out to be 83%. Still for that read-out and setting: the same measure for `N#Cc1cnc2cc(O[C@H]3CCOC3)c(NC(=O)/C=C/CN3CCOCC3)cc2c1Nc1ccc(OCc2ccccn2)c(Cl)c1` [Example 186, (S,E/Z)-N-(4-(3-CHLORO-4-(PYRIDIN-2-YL-METHOXY)PHENYLAMINO)-3-CYANO-7-(TETRAHYDROFURAN-3-YL-OXY)QUINOLIN-6-YL)-4-(MORPHOLIN-4-YL)-BUT-2-ENAMIDE]: 80%.

Another assay relates to A431 cells. Description: A431 Cell Growth Inhibition Test (MTT Assay). Format: cell-based, human. The note with it: Homo sapiens, A-431, 68 h, compound 1 μM, 68 h incubation, read-out: Growth Inhibition Ratio (%). How it is done: A431 Cell Growth Inhibition Test (MTT Assay)
1. Cell strains: A431 (human epithelial […] cell strains);
Culture medium: 45% DMEM, 45% F12+10% FBS;
1. A plate (10 cm) of cells in logarithmic growth phase normally cultured was collected;
2. The culture solution was sucked out. The plate was washed with 5 ml of PBS 1-2 times;
3. PBS was sucked out, and 2 ml of 0.25% pancreatin was added to infiltrate the cells for 1 min;
4. The pancreatin was sucked out, and the culture plate was placed in an incubator. Digestion was carried out for about 15 min at 37° C.;
5. 4 ml of complete culture solution was added in the culture plate to stop the digestion. The cells were carefully scoured with micropipette (1 ml) to give a uniform cell suspension. The suspension was implanted into a 96-well cell culture plate by 2500 cells/100 μl per well. The culture plate was incubated overnight under 5% CO2 at 37° C. In day 2, 100 μl of culture solution comprising the compound was added in each well, and further incubated for 68 h under 5% CO2 at 37° C.
6. The culture solution was sucked out;
7. 100 μl of serum-free culture solution containing 0.5 mg/ml MTT was added in each well, and incubated for 4 h;
8. The culture solution was carefully sucked out;
9. 100 μl of DMSO was added into each well and vibrated to dissolve;
10. OD values were determined at 490 nM.
as §1
IC50: concentration of a compound where inhibition ratio was 50%. IC50 values were fitted with Origin7.5.
Turning to `CN(C)C/C=C/C(=O)Nc1cc2c(Nc3ccc(OCc4ccccc4)cc3)c(C#N)cnc2cc1O[C@H]1CCOC1` [Example 155, (S,E)-N-(4-(4-(BENZYLOXY)PHENYLAMINO)-3-CYANO-7-(TETRAHYDROFURAN-3-YL-OXY)QUINOLIN-6-YL)-4-(DIMETHYLAMINO)-BUT-2-ENAMIDE], the inhibition at 1 µM worked out at 82%. On the same count and under the same terms, the same measure for `CN(C)C/C=C/C(=O)Nc1cc2c(Nc3ccc(OCc4ccccc4F)c(Cl)c3)c(C#N)cnc2cc1O[C@H]1CCOC1` [Example 157, (S,E)-N-(4-(4-(2-FLUOROBENZYLOXY)-3-CHLOROPHENYLAMINO)-3-CYANO-7-(TETRAHYDROFURAN-3-YL-OXY)QUINOLIN-6-YL)-4-(DIMETHYLAMINO)-BUT-2-ENAMIDE]: 72%.

With `N#Cc1cnc2cc(O[C@H]3CCOC3)c(NC(=O)/C=C/CN3CCCCC3)cc2c1Nc1ccc(OCc2ccccn2)c(Cl)c1` [Example 185, (S,E/Z)-N-(4-(3-CHLORO-4-(PYRIDIN-2-YL-METHOXY)PHENYLAMINO)-3-CYANO-7-(TETRAHYDROFURAN-3-YL-OXY)QUINOLIN-6-YL)-4-(PIPERIDIN-1-YL)-BUT-2-ENAMIDE], the inhibition at 1 µM was 70%.
